# Reference: patent publication USRE48461E1, “Modulation of androgen receptor expression” (Ionis Pharmaceuticals, Inc., priority 2012, dated 2021)
# pIC50: −log10 of the molar value. Oligonucleotides are written 5' to 3', each unit as a sugar letter and its base; * is a phosphorothioate linkage, no mark a phosphodiester; rarer units and linkages stand in square brackets, end groups in braces. Plain capitals give the bases only. e = 2'-O-(2-methoxyethyl) (MOE); k = constrained ethyl (cEt); [5mC] = 5-methylcytosine; d = 2'-deoxy (DNA)
# What was measured:
# [1] = test system: AR mRNA; assay: Antisense inhibition of human AR in HuVEC cells, single concentration (electroporation, qRT-PCR RTS3559); format: cell-based
# How it was run: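 HuVEC cells electroporated with antisense oligonucleotides at a single concentration. AR mRNA quantified by qRT-PCR using human primer-probe set RTS3559 and normalised to total RNA content by RIBOGREEN.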
# [2] = test system: AR mRNA; assay: AR mRNA in LnCaP cells by free uptake (hAR_LTS00943); format: cell-based, human; conditions: 24 hrs
# Description: Cells were plated at a concentration of 4,000 cells/well in 96-well plates. ISIS oligonucleotides, specified in Table 68, were added individually at 0.02 μM, 0.10 μM, 0.50 μM, 2.50 μM, or 10.00 μM. After an incubation period of 24 hrs, mRNA levels were measured using primer probe set hAR_LTS00943.
# [3] = test system: AR mRNA; assay: Dose-dependent antisense inhibition of human AR in HuVEC cells (electroporation, qRT-PCR RTS3559, IC50); format: cell-based; conditions: HuVEC
# How it was run: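 HuVEC cells dosed with antisense oligonucleotides by electroporation and treated approximately 16 hours. AR mRNA quantified by real-time qPCR with primer probe set RTS3559 and normalised to total RNA by RIBOGREEN; IC50 from dose-response.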
# [4] = Table 31, electroporation, approximately 16 hours
# [5] = Table 35, electroporation, approximately 16 hours
# [6] = Table 33, electroporation, approximately 16 hours
substance,measurement,setting,value
569216 (antisense eT*kG*kA*kT*dT*dT*dA*dA*dT*dG*dG*dT*kT*kG*k[5mC]*eA) [compound 569216],% inhibition,"[1]; 250 nM ASO, ~24 h, Table 7",68%
same,Percent inhibition of AR mRNA,[2]; 0.02 μM,15%
same,Percent inhibition of AR mRNA,[2]; 0.1 μM,17%
same,Percent inhibition of AR mRNA,[2]; 0.5 μM,49%
same,Percent inhibition of AR mRNA,[2]; 10 μM,82%
same,percent inhibition of AR,"[3]; 31.25 nM, ~16 h, Table 8",38%
same,percent inhibition of AR,"[3]; 62.5 nM, ~16 h, Table 8",51%
same,percent inhibition of AR,"[3]; 125.0 nM, ~16 h, Table 8",68%
same,percent inhibition of AR,"[3]; 500.0 nM, ~16 h, Table 8",91%
same,percent inhibition of AR,"[3]; 1000.0 nM, ~16 h, Table 8",96%
same,pIC50,"[3]; ~16 h, Table 8",7.30
569213 (antisense kT*kG*kA*dT*dT*dT*dA*dA*dT*dG*dG*dT*kT*kG*k[5mC]*eA) [compound 569213],% inhibition,"[1]; 250 nM ASO, ~24 h, Table 7",69%
same,Percent inhibition of AR mRNA,[2]; 0.02 μM,3%
same,Percent inhibition of AR mRNA,[2]; 0.1 μM,0%
same,Percent inhibition of AR mRNA,[2]; 0.5 μM,31%
same,Percent inhibition of AR mRNA,[2]; 10 μM,78%
same,percent inhibition of AR,"[3]; 31.25 nM, ~16 h, Table 8",35%
same,percent inhibition of AR,"[3]; 62.5 nM, ~16 h, Table 8",53%
same,percent inhibition of AR,"[3]; 125.0 nM, ~16 h, Table 8",65%
same,percent inhibition of AR,"[3]; 500.0 nM, ~16 h, Table 8",94%
same,percent inhibition of AR,"[3]; 1000.0 nM, ~16 h, Table 8",96%
same,pIC50,"[3]; ~16 h, Table 8",7.22
569221 (antisense eT*eG*kA*kT*kT*dT*dA*dA*dT*dG*dG*dT*dT*kG*k[5mC]*kA) [compound 569221],Percent inhibition of AR mRNA,[2]; 0.02 μM,18%
same,Percent inhibition of AR mRNA,[2]; 0.1 μM,31%
same,Percent inhibition of AR mRNA,[2]; 0.5 μM,49%
same,Percent inhibition of AR mRNA,[2]; 10 μM,91%
same,percent inhibition of AR,"[3]; 62.5 nM, ~16 h, Table 12",12%
same,percent inhibition of AR,"[3]; 125.0 nM, ~16 h, Table 12",32%
same,percent inhibition of AR,"[3]; 500.0 nM, ~16 h, Table 12",57%
same,percent inhibition of AR,"[3]; 1000.0 nM, ~16 h, Table 12",73%
same,pIC50,"[3]; ~16 h, Table 12",6.53
579666 (antisense eT*kG*kA*eT*eT*kT*kA*dA*dT*dG*dG*dT*dT*dG*k[5mC]*kA) [compound 579666],Percent inhibition of AR mRNA,[2]; 0.02 μM,0%
same,Percent inhibition of AR mRNA,[2]; 0.1 μM,8%
same,Percent inhibition of AR mRNA,[2]; 0.5 μM,30%
same,Percent inhibition of AR mRNA,[2]; 10 μM,68%
same,percent inhibition of AR,"[3]; 62.5 nM, ~16 h, Table 10",33%
same,percent inhibition of AR,"[3]; 125.0 nM, ~16 h, Table 10",34%
same,percent inhibition of AR,"[3]; 500.0 nM, ~16 h, Table 10",64%
same,percent inhibition of AR,"[3]; 1000.0 nM, ~16 h, Table 10",80%
same,pIC50,"[3]; ~16 h, Table 10",6.64
549387 (kA*kG*k[5mC]*dT*dT*d[5mC]*dA*dT*d[5mC]*dT*d[5mC]*d[5mC]*dA*k[5mC]*kA*kG; antisense) [compound 549387],% inhibition,"[1]; 500 nM ASO, electroporation, ~24 h, Table 1",84%
same,percent inhibition of AR,"[3]; 55.6 nM, ~16 h, Table 4",9%
same,percent inhibition of AR,"[3]; 166.7 nM, ~16 h, Table 4",41%
same,percent inhibition of AR,"[3]; 500.0 nM, ~16 h, Table 4",68%
same,percent inhibition of AR,"[3]; 1500.0 nM, ~16 h, Table 4",92%
same,pIC50,"[3]; ~16 h, Table 4",6.58
583789 (antisense kT*kG*k[5mC]*dA*dT*dG*dG*dT*dG*d[5mC]*dT*dG*dG*k[5mC]*k[5mC]*kT) [compound 583789],% inhibition,"[1]; Table 19, 500 nM oligonucleotide, electroporation, approximately 24 hours, relative to untreated control",39%
same,"percent inhibition of AR, 46.9 nM",[3]; [4],30%
same,"percent inhibition of AR, 187.5 nM",[3]; [4],49%
same,"percent inhibition of AR, 750.0 nM",[3]; [4],71%
same,"percent inhibition of AR, 3000.0 nM",[3]; [4],85%
same,pIC50,[3]; [4],6.72
584145 (kA*kT*kG*dG*dG*dA*dG*dT*dA*dA*d[5mC]*dT*dT*kT*kT*kG; antisense) [compound 584145],% inhibition,"[1]; Table 24, 1,000 nM oligonucleotide, electroporation, approximately 24 hours, relative to untreated control",76%
same,"percent inhibition of AR, 46.9 nM",[3]; [5],6%
same,"percent inhibition of AR, 187.5 nM",[3]; [5],32%
same,"percent inhibition of AR, 750.0 nM",[3]; [5],63%
same,"percent inhibition of AR, 3000.0 nM",[3]; [5],88%
same,pIC50,[3]; [5],6.44
583893 (kA*kG*k[5mC]*dA*dG*d[5mC]*d[5mC]*dT*dA*dG*dG*d[5mC]*dT*k[5mC]*kT*k[5mC]; antisense) [compound 583893],% inhibition,"[1]; Table 20, 500 nM oligonucleotide, electroporation, approximately 24 hours, relative to untreated control",34%
same,"percent inhibition of AR, 46.9 nM",[3]; [6],15%
same,"percent inhibition of AR, 187.5 nM",[3]; [6],35%
same,"percent inhibition of AR, 750.0 nM",[3]; [6],62%
same,"percent inhibition of AR, 3000.0 nM",[3]; [6],79%
same,pIC50,[3]; [6],6.38
